Measured values published in article PMC12133982, “Predominant T-cell epitopes of SARS-CoV-2 restricted by multiple prevalent HLA-B and HLA-C allotypes in Northeast Asia” (Frontiers in Immunology, 2025).
Where two headings read alike, the source gives them in different places. Peptide text beside a SMILES is read from it.

Columns and labels:
HLA-C0401 = HLA-C0401 (Homo sapiens, UniProt P10321, A176E/A330V/A35S/A73E/C25G/C350S/D138N/D33S/E299K/L171W/L180R/L218V/M285V/M309V/M331V/N104K/P208H/Q277E/Q291P/R243W/R38W/S101N/S123F/S140F/S297R/S48A/T329A/T363A/V319A/V327M); assay: Competitive peptide binding assay, CIR-C0401; details: HMy2.CIR-C0401 cells, reference Cy5-[…], class from inhibition at 5 and 15 μM, flow cytometry MFI; read-out: Binding affinity with HLA-C0401
Experimental: (§1) Then, competitive peptide binding assays were performed.

HLA-C0702 = HLA-C0702 (Homo sapiens, UniProt P10321); assay: Competitive peptide binding assay, CIR-C0702
HLA-C0602 = HLA-C0602 (Homo sapiens, UniProt P10321, A176E/A330V/C350S/L171W/L180W/L218V/M285V/M309V/M331V/N104K/P208H/Q277E/Q291P/R121W/S101N/S123Y/S297R/T329A/T363A/V319A/V328M); assay: Competitive peptide binding assay, CIR-C0602
HLA-C0102 = HLA-C0102 (Homo sapiens, UniProt P10321, A176E/A330V/A35S/A97T/C350S/D114A/D33F/L171W/L180R/L218V/M285V/M309V/M331V/P208H/Q277E/Q291P/R121W/R243W/R30K/S123C/S140Y/S297R/T329A/T363A/V272M/V319A); assay: Competitive peptide binding assay, CIR-C0102; details: for inhibition at 5 µM / inhibition at 15 µM: read-out: Inhibition % of Cy5-reference peptide binding
Experimental: as §1

HLA-C0302 = HLA-C0302 (Homo sapiens, UniProt P10321, A176E/A330V/A97T/C25G/C350S/D114A/D33Y/E197K/L127V/L171W/L218V/M285V/M309V/M331V/P208H/Q277E/Q291P/R243W/R45H/S123Y/S297R/S48A/T118I/T187L/T329A/T363A/V319A); assay: Competitive peptide binding assay, CIR-C0302; details: HMy2.CIR-C0302 cells, reference Cy5-[…], class from inhibition at 5 and 15 μM, flow cytometry MFI; read-out: Binding affinity with HLA-C0302
Experimental: as §1

HLA-C0801 = HLA-C0801 (Homo sapiens, UniProt P10321, A176T/A330V/A97T/C350S/D114A/D138N/D33Y/E201K/E299G/L171W/L218V/M285V/M309V/M331V/P208H/Q277E/Q291P/R59Q/S123Y/S140F/S297R/S48A/T329A/T363A/V319A/V328M); assay: Competitive peptide binding assay, CIR-C0801; details: HMy2.CIR-C0801 cells, reference Cy5-[…], class from inhibition at 5 and 15 μM, flow cytometry MFI; read-out: Binding affinity with HLA-C0801
Experimental: as §1

[1] = HMy2.CIR-C0102 cells, reference Cy5-[…], class from inhibition at 5 and 15 μM, flow cytometry MFI, read-out: Binding affinity with HLA-C0102

Compound: CC[C@H](C)[C@H](NC(=O)[C@H](C)NC(=O)[C@H](CC(C)C)NC(=O)[C@@H](NC(=O)[C@@H](N)C(C)C)[C@@H](C)O)C(=O)N[C@@H](CC(C)C)C(=O)N[C@H](C(=O)N[C@@H](C)C(=O)N[C@@H](CC(C)C)C(=O)O)[C@@H](C)O [Epitope M3, VTLAILTAL] (H-VTLAILTAL-OH; N-terminus and C-terminus assumed)
- IC50 (HLA-C0401): < 5 µM
- IC50 (HLA-C0702): 5 to 15 µM
- IC50 (HLA-C0602): > 15 µM
- IC50 (HLA-C0102; [1]): < 5 µM
- inhibition at 5 µM (HLA-C0102): 69.2%
- inhibition at 15 µM (HLA-C0102): 87.4%

Compound: CC(C)[C@H](NC(=O)[C@H](CC(N)=O)NC(=O)[C@H](Cc1ccc(O)cc1)NC(=O)[C@H](C)NC(=O)[C@@H](N)CCCCN)C(=O)N[C@H](C(=O)N[C@@H](CCC(N)=O)C(=O)N[C@@H](C)C(=O)N[C@@H](Cc1ccccc1)C(=O)O)[C@@H](C)O [Epitope M11] (H-KAYNVTQAF-OH)
- IC50 (HLA-C0401): > 15 µM
- IC50 (HLA-C0702): 5 to 15 µM
- IC50 (HLA-C0302): > 15 µM
- IC50 (HLA-C0602): < 5 µM
- IC50 (HLA-C0102; [1]): 5 to 15 µM

Compound: CC[C@H](C)[C@H](NC(=O)[C@H](C)NC(=O)CNC(=O)[C@@H](NC(=O)[C@H](Cc1ccc(O)cc1)NC(=O)[C@@H](NC(=O)[C@@H](N)CC(C)C)[C@@H](C)O)[C@@H](C)O)C(=O)N[C@@H](CCCCN)C(=O)N[C@@H](CC(C)C)C(=O)O [Epitope M15] (H-LTYTGAIKL-OH; N-terminus and C-terminus assumed)
- IC50 (HLA-C0702): > 15 µM
- IC50 (HLA-C0302): > 15 µM
- IC50 (HLA-C0602): < 5 µM
- IC50 (HLA-C0801): < 5 µM

Compound: CC[C@H](C)[C@H](NC(=O)[C@H](CCCNC(=N)N)NC(=O)[C@H](CO)NC(=O)[C@H](CCSC)NC(=O)CNC(=O)[C@@H](N)Cc1ccccc1)C(=O)NCC(=O)N[C@@H](CCSC)C(=O)N[C@@H](CCC(=O)O)C(=O)N[C@H](C(=O)O)C(C)C [Epitope M19] (H-FGMSRIGMEV-OH; N-terminus and C-terminus assumed)
- IC50 (HLA-C0702): > 15 µM
- IC50 (HLA-C0602): < 5 µM
- IC50 (HLA-C0801): > 15 µM
- IC50 (HLA-C0102; [1]): > 15 µM

Compound: CSCC[C@H](NC(=O)[C@H](CO)NC(=O)[C@H](CCCNC(=N)N)NC(=O)[C@@H](NC(=O)[C@H](CCCNC(=N)N)NC(=O)[C@H](C)NC(=O)[C@H](Cc1ccccc1)NC(=O)[C@H](CC(C)C)NC(=O)[C@@H](N)CCCNC(=N)N)[C@@H](C)O)C(=O)O [Epitope M41] (H-RLFARTRSM-OH; N-terminus and C-terminus assumed)
- IC50 (HLA-C0702): > 15 µM
- IC50 (HLA-C0801): 5 to 15 µM
- IC50 (HLA-C0102): > 15 µM
- inhibition at 5 µM (HLA-C0102): 9.56%
- inhibition at 15 µM (HLA-C0102): 35.7%

Compound: CC(C)C[C@H](NC(=O)[C@H](C)NC(=O)[C@@H](NC(=O)[C@H](Cc1ccccc1)NC(=O)[C@H](Cc1c[nH]c2ccccc12)NC(=O)[C@H](CO)NC(=O)[C@H](C)NC(=O)[C@@H](NC(=O)[C@@H](N)CC(N)=O)[C@@H](C)O)[C@@H](C)O)C(=O)O [Epitope M56, NTASWFTAL] (H-NTASWFTAL-OH; N-terminus and C-terminus assumed)
- IC50 (HLA-C0602): > 15 µM
- IC50 (HLA-C0801): 5 to 15 µM
- IC50 (HLA-C0102; [1]): > 15 µM
- inhibition at 5 µM (HLA-C0102): 17.3%
- inhibition at 15 µM (HLA-C0102): 46.5%

Compound: CC[C@H](C)[C@H](NC(=O)[C@H](Cc1ccc(O)cc1)NC(=O)[C@H](CC(C)C)NC(=O)[C@H](Cc1ccccc1)NC(=O)[C@H](CCCNC(=N)N)NC(=O)[C@H](CC(N)=O)NC(=O)[C@H](CCCNC(=N)N)NC(=O)[C@H](CC(N)=O)NC(=O)[C@H](C)NC(=O)[C@@H](N)Cc1ccc(O)cc1)C(=O)O [Epitope M73] (H-YANRNRFLYI-OH; N-terminus and C-terminus assumed)
- IC50 (HLA-C0302): 5 to 15 µM
- IC50 (HLA-C0602): < 5 µM
- IC50 (HLA-C0102; [1]): > 15 µM
- inhibition at 5 µM (HLA-C0102): 23.5%
- inhibition at 15 µM (HLA-C0102): 47.8%

Compound: CC(C)[C@H](NC(=O)CNC(=O)[C@H](CCCNC(=N)N)NC(=O)[C@@H](NC(=O)[C@H](Cc1ccccc1)NC(=O)[C@H](CO)NC(=O)[C@@H](N)CC(N)=O)[C@@H](C)O)C(=O)N[C@@H](Cc1ccc(O)cc1)C(=O)N[C@@H](Cc1ccc(O)cc1)C(=O)O [Epitope M129] (H-NSFTRGVYY-OH; N-terminus and C-terminus assumed)
- IC50 (HLA-C0302): > 15 µM
- IC50 (HLA-C0102; [1]): > 15 µM
- inhibition at 5 µM (HLA-C0102): 11.3%
- inhibition at 15 µM (HLA-C0102): 34.3%
